According to patent US20080280810A1, “PEPTIDES HAVING AFFINITY FOR BODY SURFACES” (priority 2006, published 2008):

How the values were obtained:
[1] = Co-application of multi-block peptide with semi-permanent dye (Arianor Ebony), color retention; set-up: species or system human; key: ΔE of peptide sample minus peptide-free control; larger = better retention; conditions: difference in Delta E between peptide sample and peptide free control after 3 embrocation cycles (about 12 manual shampoos); pH 8.5-9.0; >2 benefit, >4 substantial benefit
Protocol: (§1) A 0.5% aqueous solution of Arianor Ebony (Sensient Technologies Corp, Milwaukee, Wis.) containing 3% benzyl alcohol and 0.05% diazolidinyl urea (biocide) was prepared. Dye insolubles were removed by filtration and the pH of the dye solution was adjusted to 8.50-9.0, using ethanolamine.
(§2) Approximately 1 mL of the dye solution was added to selected wells of a 24-well plate (Thomson Instrument Co., Oceanside, Calif.; part # 931565). A multi-block peptide (see Table 12) was dissolved in a solution consisting of 3 wt % benzyl alcohol and 95 wt % water to yield a peptide concentration of 2 wt % or approximately 20 mg/mL. The pH was adjusted to 8.5-9.0 using ethanolamine. The peptide solution was then pipetted into test wells containing dye solution in the amount of 1 mL or 0.2 mL respectively. The total volume in each test well was then adjusted to 2 mL where necessary using 3% aqueous benzyl alcohol (pH adjusted to 8.5-9.0 with ethanolamine). Peptide free controls consisted of 1 mL of dye solution diluted to 2 mL with the pH adjusted aqueous benzyl alcohol solution.
(§3) Baseline […] readings were made on one inch long tresses (see below) using an X-RITE® SP78™ Sphere Spectrophotometer (X-Rite, Inc., Grandville, Mich.), by placing the hair tress into the photosensor and calculating L*, a* and b* parameters representing the photometer response. All measurements were the average of three individual determinations.
(§4) The tresses (potted on one end with resin) of natural white, 85% gray or regular bleached hair (International Hair Importers and Products, Bellerose, N.Y.) were immersed in the peptide/dye solution and the entire well plate was agitated on a VORTEX-GENIE® 2 Mixer (Scientific Industries, Bohemia, N.Y.) at a speed setting of 1 for 30 minutes. The tresses were removed from the wells, rinsed for 30 seconds under flowing deionized water and then air dried.
(§5) The following complement of beads was then added to each well containing a hair tress: (8 beads in all; 4 Novagen Coli Rollers Plating Beads—sterilized (EMD Biosciences, San Diego, Calif.; Catalog No. 71013), 2 BioSpec 6.35 mm glass beads (BioSpec Products, Bartlesville, Okla.; Catalog No. 11079635), and 2 BioSpec 3.2 mm Stainless Steel Bead (Catalog No. 11079132ss).
(§6) Then 2.5 mL of aqueous 50% Pantene Pro V® shampoo (Proctor & Gamble Co., Cincinnati, Ohio) was pipetted into each well. The plate was placed on a VWR® VX-2500 Multi-tube Vortexer (VWR, West Chester, Pa.) for 5 minutes to simulate shampooing with embrocation. The hair tresses were then rinsed under flowing deionized water and air dried. This cycle was repeated two more times except that the length of time was 10 minutes for both subsequent embrocation cycles. (This treatment was previously determined to simulate approximately 12 manual shampoo cycles.) At the conclusion of the third embrocation cycle L*, a* and b* values were measured and Delta E values (ΔE) were calculated using equation 1 below:
(§7) where L*=the lightness variable and a* and b* are the chromaticity coordinates of CIELAB colorspace as defined by the International Commission of Illumination (CIE) (Minolta, Precise Color Communication—Color Control From Feeling to Instrumentation, Minolta Camera Co., 1996).
(§8) The Delta E value (ΔE) indicates color retention relative to the non-dyed hair and larger Delta E values indicate better performance. Values listed in the table represent the difference in Delta E values between the peptide-containing sample and the peptide free control. This difference is indicative of color retention after shampoo or water rinse treatments and positive values indicate better performance relative to the peptide free controls (Table 12).

[2] = as above; set-up: species or system human; conditions: difference in Delta E between peptide sample and peptide free control after 3 embrocation cycles (about 12 manual shampoos); pH 8.5-9.0; >2 benefit, >4 substantial benefit
Protocol: as §1, §2, §3, §4, §5, §6, §7, §8

[3] = Phage ELISA on pellicle coated HAP disks; type: binding, human; conditions: over 10^10 pfu purified phage, anti-M13 HRP conjugate, TMB, no phage control 0.218
Protocol: A total of 20 selected phage candidates (Example 29) were used in a phage ELISA experiment. Purified phage lysates were used for binding to pellicle HAP disks using an anti-M13 phage antibody conjugated to horseradish-peroxidase, followed by the addition of chromogenic agent TMB, obtained from Pierce Biotechnology (Rockford, Ill.). The plates were read at A450 nm.
For each phage candidate to be tested, the pellicle coated HAP disks (3 mm diameter) was incubated for 1 h at room temperature with 200 μL of blocking buffer, consisting of 2% non-fat dry milk (Schleicher & Schuell, Inc.) in TBS. The blocking buffer was removed by aspirating the liquid out of each tube. The tube was rinsed 6 times with wash buffer consisting of TBST-0.05%. The wells were filled with 200 μL of TBST-0.5% containing 1 mg/mL BSA (bovine serum albumin) and then 10 μL (over 10^10 pfu) of purified phage stock was added. The samples were incubated at room temperature for 60 min with slow shaking. The non-binding phage were removed by washing 6 times with TBST-0.5%. Then, 100 μL of horseradish peroxidase/anti-M13 antibody conjugate (Amersham USA, Piscataway, N.J.), diluted 1:500 in the blocking buffer, was added and incubated for 1 h at room temperature. The conjugate solution was removed and was washed 6 times with TBST-0.5%. TMB (3,3′,5,5′-tetramethylbenzidine) substrate (200 μL), obtained from Pierce Biotechnology (Rockford, Ill.) was added to each well and the color was allowed to develop for 5 to 30 min, typically for 10 min, at room temperature. Then, stop solution (200 μL of 2 M H2SO4) was added to each well and the solution was transferred to a 96-well plate and the A450 was measured using a microplate spectrophotometer (Molecular Devices, Sunnyvale, Calif.).

[4] = HPLC analysis of peptide uptake by hair; type: binding, human; conditions: 20 mM Tris pH 7.2, 0.15 M NaCl, room temperature, no dye; peptide 0.1 mg/mL (IB5A, A5) or 0.05 mg/mL (HC 71, HC 74)
Protocol: The purpose of this Example was to compare the speed of uptake by measuring the amount of various peptides including peptides of the invention bound to hair at different time points using a high performance liquid chromatography (HPLC) method. The peptides, HC 71, HC 74, IB5 (the hair-binding peptide sequence in HC 71), and A5 (the hair-binding peptide sequence in HC 74), were dissolved in 10 mL of 20 mM Tris, pH 7.2 buffer containing 0.15 M NaCl to give the peptide concentrations shown in Table 11. Natural white hair, 0.54 g, (International Hair Importers & Products Inc., Bellerose, N.Y.) was pre-equilibrated with 10 mL of Tris buffer for 30 min with mixing at room temperature. Then, the buffer was drained from the hair and 10 mL of one of the peptide solutions was added. The hair was incubated with the peptide solution at room temperature without mixing and samples were taken at 0, 30 and 60 min for HPLC analysis. For peptide uptake measurements in the presence of Acid Red 33 dye, the peptide solution was mixed 1:1 with an aqueous solution of the dye (0.5 wt %). Natural white hair (0.65 g) pre-wet with deionized water, was added to the peptide solutions and the solutions were incubated at room temperature without mixing. Samples were taken at time 0, 30, and 60 min for analysis by HPLC. The samples were analyzed using HPLC to determine the concentration of the peptide remaining in solution, and by difference, the amount of peptide taken up by the hair. The HPLC analysis was done using an Agilent liquid chromatograph (Agilent Technologies Inc., Wilmington, Del.) with a 5 μm Zorbax Eclipse XDB-C18 column (Agilent Technologies Inc.). The sample was diluted with distilled water containing 0.1% trifluoroacetic acid (typically a 10-fold dilution), and 5 to 50 μL was injected using a 100 μL injection loop. A solvent gradient elution was used with two solvents: Solvent A, consisting of acetonitrile with 0.1% aqueous trifluoracetic acid, and Solvent B, consisting of water with 0.1% trifluoroacetic acid. The gradient was from 10% acetonitrile to 80% acetonitrile at a rate of 1%/min over a period of 70 min. The flow rate was 1.25 mL/min. Detection was done with a photodiode array detector at 218 nm, 230 nm, and 278 nm.

Q: With “A5-EGEGER (EQISGSLVAAPWEGEGER; Peptide having affinity for hair) [Peptide A5-EGEGER]” as the substance, how does the “ΔE Retention Ebony Dye Regular Bleached Hair” value [1] read?
A: −1.0

Q: And the “ΔE Retention Ebony dye with Natural White Hair” value [1]?
A: 5.7

Q: And the “ΔE Retention Ebony Dye with 85% Gray Hair” value [2]?
A: 3.7

Q: Which “ΔE Retention Ebony Dye Regular Bleached Hair” value [1] does the source give for “A5-KRKRKD (EQISGSLVAAPWKRKRKD; Peptide having affinity for hair) [Peptide A5-KRKRKD]” here?
A: 1.09

Q: And the “ΔE Retention Ebony dye with Natural White Hair” value [1]?
A: 5.8

Q: And the “ΔE Retention Ebony Dye with 85% Gray Hair” value [2]?
A: −0.59

Q: With AHPESLGIKYALDGNSDPHA [Pell 1] as the substance, how does the “O.D. at 450 nm” value [3] read?
A: 0.739

Q: For ASVSNYPPIHHLATSNTTVN [Pell 2], which “O.D. at 450 nm” value [3] is on record?
A: 0.75

Q: With DECMEPLNAAHCWR [Pell 3] as the substance, how does the “O.D. at 450 nm” value [3] read?
A: 0.49

Q: With DECMHGSDVEFCTS [Pell 4] as the substance, how does the “O.D. at 450 nm” value [3] read?
A: 0.664

Q: For DLCSMQMMNTGCHY [Pell 5], which “O.D. at 450 nm” value [3] is on record?
A: 0.83

Q: For DLCSSPSTWGSCIR [Pell 6], which “O.D. at 450 nm” value [3] is on record?
A: 0.735

Q: With DPNESNYENATTVSQPTRHL [Pell 7] as the substance, how does the “O.D. at 450 nm” value [3] read?
A: 0.831

Q: For EPTHPTMRAQMHQSLRSSSP [Pell 8], which “O.D. at 450 nm” value [3] is on record?
A: 0.712

Q: What does the source list for “EQISGSLVAAPW (Hair-Binding Peptide) [Peptide A5, reference compound]”?
A: % Uptake time = 0 min [4]: 0%; % Uptake time = 30 min [4]: 2%; % Uptake time = 60 min [4]: 4%

Q: With “F4-KRKRKD (LDTSFHQVPFHQKRKRKD; Peptide having affinity for hair) [Peptide F4-KRKRKD]” as the substance, how does the “ΔE Retention Ebony Dye Regular Bleached Hair” value [1] read?
A: −2.66

Q: And the “ΔE Retention Ebony dye with Natural White Hair” value [1]?
A: 0.12

Q: And the “ΔE Retention Ebony Dye with 85% Gray Hair” value [2]?
A: 2.87

Q: For GNTDTTPPNAVMEPTVQHKW [Pell 9], which “O.D. at 450 nm” value [3] is on record?
A: 0.755

Q: With “IB5-KRKRKD (TPPELLHGDPRSKRKRKD; Peptide having affinity for hair)” as the substance, how does the “ΔE Retention Ebony Dye Regular Bleached Hair” value [1] read?
A: −0.44

Q: And the “ΔE Retention Ebony dye with Natural White Hair” value [1]?
A: 4.49

Q: What about the “ΔE Retention Ebony Dye with 85% Gray Hair” value [2] of the same substance?
A: 1.2

Q: What does the source list for “KF11-EGEGED (NTSQLSTEGEGED; Peptide having affinity for hair)”?
A: ΔE Retention Ebony Dye Regular Bleached Hair [1]: −4.05; ΔE Retention Ebony dye with Natural White Hair [1]: 3.6; ΔE Retention Ebony Dye with 85% Gray Hair [2]: 0.94

Q: For “LDTSFHQVPFHQ (Peptide having affinity for hair) [Peptide F4, reference compound]”, which “ΔE Retention Ebony Dye Regular Bleached Hair” value [1] is on record?
A: 0.95

Q: And the “ΔE Retention Ebony dye with Natural White Hair” value [1]?
A: 5.17

Q: And the “ΔE Retention Ebony Dye with 85% Gray Hair” value [2]?
A: 3.24

Q: Which “O.D. at 450 nm” value [3] does the source give for NGPDMVQSVGKHKNS [Pell 10] here?
A: 0.729

Q: Which “O.D. at 450 nm” value [3] does the source give for NGPEVRQIPANFEKL [Pell 11] here?
A: 0.607

Q: For NNTSADNPPETDSKHHLSMS [Pell 12], which “O.D. at 450 nm” value [3] is on record?
A: 0.521

Q: Which “O.D. at 450 nm” value [3] does the source give for NNTWPEGAGHTMPSTNIRQA [Pell 13] here?
A: 0.598

Q: Which “O.D. at 450 nm” value [3] does the source give for NPTATPHMKDPMHSNAHSSA [Pell 14] here?
A: 0.7

Q: With NPTDHIPANSTNSRVSKGNT [Pell 15] as the substance, how does the “O.D. at 450 nm” value [3] read?
A: 0.567

Q: For NPTDSTHMMHARNHE [Pell 16], which “O.D. at 450 nm” value [3] is on record?
A: 0.578

Q: With “P-KRGRHKRPKRHK-GGG-IB5A-C (PKRGRHKRPKRHKGGGTPPELLHGAPRSC; Peptide having affinity for hair) [HC100]” as the substance, how does the “ΔE Retention Ebony Dye Regular Bleached Hair” value [1] read?
A: −0.27

Q: What about the “ΔE Retention Ebony dye with Natural White Hair” value [1] of the same substance?
A: −4.5

Q: And the “ΔE Retention Ebony Dye with 85% Gray Hair” value [2]?
A: 4.1

Q: For TPCAPASFNPHCSR [Pell 18], which “O.D. at 450 nm” value [3] is on record?
A: 0.416

Q: For TPCATYPHFSGCRA [Pell 19], which “O.D. at 450 nm” value [3] is on record?
A: 0.731

Q: What does the source list for “TPPELLHGAPRS (Hair-binding peptide) [IB5A, reference compound]”?
A: % Uptake time = 0 min [4]: 0%; % Uptake time = 30 min [4]: 8%

Q: With WCTDFCTRSTPTSTSRSTTS [Pell 20] as the substance, how does the “O.D. at 450 nm” value [3] read?
A: 0.715
